# From patent US8802734B2, “Method of treating or preventing pain” (Novaremed Limited, priority 2009, dated 2014)
# Columns and labels:
# Balb/c mice [1] = assay: Formalin test; assay type: in vivo; details: i.p. 0.2, 1, 2.5 mg/kg, formalin 1% intraplantar 3 h or 4 h after the treatment, FIGS. 12a-12e
# Experimental: Formalin test. The method used was similar to that described by Hunscaar and Hole (1987) “The formalin test in mice: dissociation between inflammatory and non-inflammatory pain,” Pain 30, pp. 103-104.
# Five animals are used in each group and two to three hours after oral administration of the conjugates, 40 μl or 20 μl (rats or mice, respectively) of a 1% formalin (in 0.9% saline) solution is injected subcutaneously into the dorsal surface hind paw. The formalin induced typical flinching behaviour of the injected paw which was counted. The animals were returned to a glass chamber and the total time spent by the animal licking or biting the injected paw was measured. Formalin induced pain behaviour is biphasic. The duration of paw licking was determined during the following two time periods: 0-5 min (first-neurogenic phase) and 20-30 min (second-inflammatory phase) after formalin injection.
# Part a. Male mice (Balb/c mice, 27 weeks old, not naïve), were divided in 4 groups (5 mice per group) and treated (0 min, i.p.) with the following formulations, respectively: […]
# Part b. Male mice (Balb/c mice, 27 weeks old, not naïve), were divided in 4 groups (5 mice in groups) and treated (0 min, i.p.) with the following formulations, respectively: […]
# Balb/c mice [2] = assay: Hot-Plate Test (antinociceptive effect), sub-chronic oral administration; assay type: in vivo; details: po daily for 16 days, 0.1 and 5 mg/Kg, hot plate on days 1, 8 and 15
# Source text: The objective of the study was to assess antinociceptive activity of tested items in the hot plate tests in mice, when administered sub-chronically. Measuring paw licking or jumping response time elapses following placement on heated surface (hot plate) was used to determine potential antinociceptive effect in mice.
# A total of 42 Balb/c mice (12 weeks old) were utilized. The mice were approximately 25 g males at study initiation. The minimum and maximum weights of the group were within a range of ±10% of group mean weight.
# Compounds 2 and 3 were tested and compared with Diclofenac® (Perigo). DMSO solutions were used. Six groups of mice (each having n=7 or n=8 mice) were tested, the last group receiving Diclofenac®.
# All groups received the drugs daily po for 16 days. Hot plate experiments were performed on days; 1, 8 and 15.
# The hot plate is maintained thermostatically at a temperature of 52° C. One hour before the administration of the drugs, mice are tested in the hot plate. At time 0 the mice are administered with the test compound and the response to the hot plate is measured again at different times: 60, 120, 180, 240, 300 and 360 min.
# Results are expressed as: Delta from maximum response [baseline vs. maximum response]; Absolute measures over time; and Accumulated time.
SMILES,anti-inflammatory properties (formalin test) (Balb/c mice [1]),effectiveness as pain relievers (hot plate test) (Balb/c mice [2])
CC(O)COCC(Cc1ccc(O)cc1)NC(=O)CCc1ccccc1 (stereo not drawn) [Compound 2],confirm the anti-inflammatory properties,effective as pain relievers
O=C(CCc1ccccc1)NC(COCCO)Cc1ccc(O)cc1 (stereo not drawn) [Compound 3],,effective as pain relievers
